Test results reported in US9506031B2, “Methods and materials for increasing potency of cells” (University of Central Florida Research Foundation, Inc., priority 2004, dated 2016).

Tested on: human mesenchymal stem cells (MeSCs)
Test: Cardiac differentiation of human MeSCs in co-culture with cardiomyocytes (H9c2), RT-PCR with cardiac specific primers
Format: cell-based
Conditions: BrdU and/or 5-azaC 1-10 uM for 3 weeks, or nanog vector transfection; then co-culture with cardiomyocytes
Source text: Cardiac differentiation of human mesenchymal stem cells (MeSCs) is achieved through treatment with nucleotide derivatives BrdU and 5-azaC and/or forced expression of embryonic stem cell gene nanog. Following treatment, cells were placed in a co-culture with cardiac cells (cardiomyocyte cell line H9c2). Human MeSCs plated in 6-well culture plates and expanded in serum-DMEM (Delbecco's Modified Eagle's Medium) containing 10% MeSC formulated fetal bovine serum (FBS, Stem Cell, Inc) containing antibiotics/antimycotics. MeSCs were treated with varying concentrations (1-10 uM) of BrdU and/or 5-azaC for 3 weeks or transfected with mammalian expression vector containing a nanog encoding sequence. Cell media was changed every three days prior to co-culture with cardiomyocytes. Cardiomyocytes were expanded and grown to near confluence in serum-DMEM with 10% non-conditioned FBS and antibiotics/antimycotics. To differentiate cardiac cells, serum media was replaced with plain DMEM containing only antibiotics and allowed to differentiate. Co-cultures were created by combining MeSCs with cardiac cells and culturing in cardiac media. Following co-culture, cells were treated with TRIzol and gene expression was assessed using RT-PCR and cardiac specific primers. […]

## Nc1ncn([C@@H]2O[C@H](CO)[C@@H](O)[C@H]2O)c(=O)n1 [5-azaC]
  expression of cardiac specific genes (RT-PCR, gel electrophoresis): expression of cardiac specific genes

## O=c1[nH]c(=O)n([C@H]2C[C@H](O)[C@@H](CO)O2)cc1Br [BrdU]
  expression of cardiac specific genes (RT-PCR, gel electrophoresis): expression of cardiac specific genes
